Among the data in US7713964B2, “Methods for treating asthmatic conditions” (Wyeth LLC, priority 2001, dated 2010) are IC50 and melting point values, retold here.

The target of the first data set is T1, cPLA2 (Homo sapiens, UniProt P47712).
T1 sequence (P47712 1-749): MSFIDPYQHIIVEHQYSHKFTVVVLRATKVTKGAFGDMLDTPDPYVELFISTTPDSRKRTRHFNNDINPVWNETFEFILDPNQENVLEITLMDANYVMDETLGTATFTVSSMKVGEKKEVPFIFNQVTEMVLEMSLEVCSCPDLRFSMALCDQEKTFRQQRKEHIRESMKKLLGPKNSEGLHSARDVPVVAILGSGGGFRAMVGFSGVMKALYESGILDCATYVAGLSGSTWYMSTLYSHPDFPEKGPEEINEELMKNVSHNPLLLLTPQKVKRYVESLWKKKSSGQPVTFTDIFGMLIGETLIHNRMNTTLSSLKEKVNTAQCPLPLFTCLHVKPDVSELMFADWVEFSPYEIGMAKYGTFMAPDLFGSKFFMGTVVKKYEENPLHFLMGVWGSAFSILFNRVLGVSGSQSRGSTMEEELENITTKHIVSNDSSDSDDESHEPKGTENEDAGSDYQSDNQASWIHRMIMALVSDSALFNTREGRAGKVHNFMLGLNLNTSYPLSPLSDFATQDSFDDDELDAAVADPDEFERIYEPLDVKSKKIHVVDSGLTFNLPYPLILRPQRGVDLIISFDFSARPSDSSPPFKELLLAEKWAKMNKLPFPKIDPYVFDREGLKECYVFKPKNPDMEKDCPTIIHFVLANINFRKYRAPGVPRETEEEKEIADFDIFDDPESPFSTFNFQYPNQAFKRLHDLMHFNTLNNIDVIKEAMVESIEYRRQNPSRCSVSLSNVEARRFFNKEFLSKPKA
The experiment in a line: Coumarine Assay (hydrolysis of 7-hydroxycoumarinyl 6-heptenoate by cPLA2, fluorometric). The conditions noted are these: 60 μM 7-hydroxycoumarinyl 6-heptenoate substrate, 4 μg cPLA2, pH 7.5; excitation 360 nm, emission 460 nm; read-out: Coumarin IC50. The data set is classed as biochemical.
Experimental: Inhibitors were mixed with 200 μL assay buffer (80 mM Heped, pH 7.5, 1 mM EDTA) containing 60 μM 7-hydroxycoumarinyl 6-heptenoate. The reaction was initiated by adding 4 μg cPLA2 in 50 μL assay buffer. Hydrolysis of the 7-hydroxycounarimyl 6-heptenoate ester was monitored in a fluorometer by exciting at 360 nm and monitoring emission at 460 nm. Enzyme activity is proportional to the increase in emission at 460 nm per minute. In the presence of a cPLA2 inhibitor, the rate of increase is less.
For the compound `O=C(O)c1ccc(OCCc2c(CCNS(=O)(=O)c3c(F)cccc3F)n(C(c3ccccc3)c3ccccc3)c3ccc(Cl)cc23)cc1` [Example 225, 4-{2-[1-benzhydryl-5-chloro-2-(2-{[(2,6-fluorophenyl)sulfonyl]amino}ethyl)-1H-indol-3-yl]ethoxy}benzoic acid], the half-maximal inhibitory concentration (IC50) worked out at 400 nM.

Take “4-{2-[1-benzhydryl-5-chloro-2-(2-{[(2,6-dimethylbenzyl)sulfonyl]amino}ethyl)-1H-indol-3-yl]ethoxy}benzoic acid [Example 279]”: the IC50 stood at 160 nM.

For `O=C(O)c1cccc(OCCc2c(CCNS(=O)(=O)Cc3ccc(Cl)c(Cl)c3)n(C(c3ccccc3)c3ccccc3)c3ccc(Cl)cc23)c1` [Example 284, 3-(2-(1-benzhydryl-5-chloro-2-(2-((3,4-dichlorophenyl)methylsulfonamido)ethyl)-1H-indol-3-yl)ethoxy) benzoic acid], the IC50 was determined as 400 nM.

For the compound “4-[2-(1-benzhydryl-5-chloro-2-{2-[({2-[(3R,5S)-3,5-dimethylmorpholin4-yl]ethyl}sulfonyl)amino]ethyl}-1H-indol-3-yl)ethoxy]benzoic acid [Example 250]”, the IC50 was 2100 nM.

Consider `O=C(O)c1ccc(OCCc2c(CCNS(=O)(=O)c3cccc(F)c3)n(C(c3ccccc3)c3ccccc3)c3ccc(Cl)cc23)cc1` [Example 223], for which the IC50 turned out to be 600 nM.

Tested on in another data set: not given
Assay: not given
Settings: not given
Compound `CC(C)(Cc1ccc(S(=O)(=O)CCc2c(CCNS(=O)(=O)Cc3ccc(Cl)c(Cl)c3)n(C(c3ccccc3)c3ccccc3)c3ccc(Cl)cc23)cc1)C(=O)O` [Example 298, 3-[4-({2-[1-benzhydryl-5-chloro-2-(2-{[(3,4-dichlorobenzyl)sulfonyl]amino}ethyl)-1H-indol-3-yl]ethyl}sulfonyl)phenyl]-2,2-dimethylpropanoic acid] returned a melting point of 207 to 208 °C.

`O=C(O)c1ccc(OCCc2c(CCNS(=O)(=O)Cc3ccccc3Cl)n(C(c3ccccc3)c3ccccc3)c3ccc(Cl)cc23)cc1F` [Example 297, 4-{2-[1-benzhydryl-5-chloro-2-(2-{[(2-chlorobenzyl)sulfonyl]amino}ethyl)-1H-indol-3-yl]ethoxy}-2-fluorobenzoic acid] registered a melting point of 132 to 135 °C.

`O=C(O)c1ccc(OCCc2c(CCNS(=O)(=O)Cc3ccc(Cl)c(Cl)c3)n(C(c3ccccc3)c3ccccc3)c3ccc(Cl)cc23)cc1F` [Example 296, 4-{2-[1-benzhydryl-5-chloro-2-(2-{[(3,4-dichlorobenzyl)sulfonyl]amino}ethyl)-1H-indol-3-yl]ethoxy}-2-fluorobenzoic acid] registered a melting point of 117 to 119 °C.
